{"source": "ChEMBL document CHEMBL4184156", "about": "“Repurposing Hsp90 inhibitors as antibiotics targeting histidine kinases” (Bioorg Med Chem Lett, 2017)", "key": {"[1]": {"molecular_target": "T1, Virulence sensor histidine kinase PhoQ (Salmonella typhimurium (strain LT2 / SGSC1412 / ATCC 700720), UniProt P0DM80)", "T1 sequence (P0DM80 whole entry)": "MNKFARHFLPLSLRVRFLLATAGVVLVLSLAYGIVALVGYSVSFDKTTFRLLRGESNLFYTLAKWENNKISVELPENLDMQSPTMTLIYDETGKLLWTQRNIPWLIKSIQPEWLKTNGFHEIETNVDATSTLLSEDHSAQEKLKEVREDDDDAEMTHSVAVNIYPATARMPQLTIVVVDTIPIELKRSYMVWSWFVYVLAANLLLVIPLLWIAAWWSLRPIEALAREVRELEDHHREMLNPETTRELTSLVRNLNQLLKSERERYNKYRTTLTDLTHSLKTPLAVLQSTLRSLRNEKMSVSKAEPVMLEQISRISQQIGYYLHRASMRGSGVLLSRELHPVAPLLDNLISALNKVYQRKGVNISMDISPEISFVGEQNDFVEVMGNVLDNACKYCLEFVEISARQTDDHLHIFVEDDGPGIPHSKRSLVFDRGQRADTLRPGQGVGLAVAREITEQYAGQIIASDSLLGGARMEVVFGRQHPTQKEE", "test": "Displacement of TNP-ATP from recombinant Salmonella typhimurium GST-tagged DHp-catalytic domain PhoQ (332 to 487 residues) expressed in Escherichia coli XA90 aafter 10 mins by fluorescence assay", "set-up": "species or system Salmonella enterica subsp. enterica serovar Typhimurium"}, "[2]": {"molecular_target": "Cell cycle histidine kinase CckA (Caulobacter vibrioides, UniProt Q9X688)", "test": "Inhibition of recombinant Caulobacter vibrioides cell cycle histidine kinase CckA deltaTM mutant DHp domain (70 to 691 residues) expressed in Escherichia coli in presence of varying levels of ATP measured every 60 secs for 2 hrs by PK/LDH enzyme coupled assay"}, "[3]": {"molecular_target": "T2, Cell cycle histidine kinase CckA (Caulobacter vibrioides, UniProt Q9X688)", "T2 sequence (Q9X688 whole entry)": "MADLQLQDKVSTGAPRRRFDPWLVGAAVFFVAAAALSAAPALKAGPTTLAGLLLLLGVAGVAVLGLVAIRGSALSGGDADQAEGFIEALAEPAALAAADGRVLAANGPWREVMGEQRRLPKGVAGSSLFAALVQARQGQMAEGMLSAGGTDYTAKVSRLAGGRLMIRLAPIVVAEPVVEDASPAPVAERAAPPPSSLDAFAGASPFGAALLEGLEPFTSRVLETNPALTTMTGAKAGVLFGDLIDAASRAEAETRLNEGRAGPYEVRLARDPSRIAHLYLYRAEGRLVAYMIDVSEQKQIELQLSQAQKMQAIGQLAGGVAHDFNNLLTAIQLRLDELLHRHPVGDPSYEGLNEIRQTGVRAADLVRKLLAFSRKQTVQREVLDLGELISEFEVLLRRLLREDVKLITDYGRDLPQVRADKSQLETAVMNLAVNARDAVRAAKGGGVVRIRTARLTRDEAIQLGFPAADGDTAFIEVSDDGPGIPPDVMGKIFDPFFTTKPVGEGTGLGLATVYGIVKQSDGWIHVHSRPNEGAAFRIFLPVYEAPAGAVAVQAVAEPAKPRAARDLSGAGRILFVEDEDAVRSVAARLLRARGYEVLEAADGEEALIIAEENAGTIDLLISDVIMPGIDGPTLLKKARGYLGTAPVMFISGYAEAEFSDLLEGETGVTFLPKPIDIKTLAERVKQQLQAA", "test": "Competitive inhibition of Caulobacter vibrioides full length wild type cell cycle histidine kinase CckA deltaTM Escherichia coli BL21-AI in presence of varying levels of ATP measured every 60 secs for 2 hrs by Lineweaver-Burk plot analysis"}, "[4]": {"molecular_target": "T1, Virulence sensor histidine kinase PhoQ", "test": "(§1) Inhibition of recombinant Salmonella typhimurium N-terminal His6-SUMO-tagged DHp-catalytic domain PhoQ (257 to 487 residues) autophosphorylation expressed in Escherichia coli BL21 (DE3) preincubated for 10 mins followed by [gamma-32P]-ATP addition after 30 mins by phosphotransferase dot blot assay", "set-up": "species or system Salmonella enterica subsp. enterica serovar Typhimurium"}, "[5]": {"test": "Hemolytic activity against sheep RBC at 0.5 mM after 30 mins relative to control", "format": "ADME, cell-based, Ovis aries, Erythrocyte", "details": "sheep red blood cells (erythrocytes), read-out: Activity"}, "[6]": {"test_system": "Caulobacter vibrioides", "test": "Antibacterial activity against Caulobacter crescentus NA1000 after 24 hrs by broth dilution method", "format": "functional", "details": "NA1000, 24 h"}, "[7]": {"molecular_target": "T3, Cell cycle histidine kinase CckA (Caulobacter vibrioides) (UniProt Q9X688)", "T3 sequence (whole entry)": "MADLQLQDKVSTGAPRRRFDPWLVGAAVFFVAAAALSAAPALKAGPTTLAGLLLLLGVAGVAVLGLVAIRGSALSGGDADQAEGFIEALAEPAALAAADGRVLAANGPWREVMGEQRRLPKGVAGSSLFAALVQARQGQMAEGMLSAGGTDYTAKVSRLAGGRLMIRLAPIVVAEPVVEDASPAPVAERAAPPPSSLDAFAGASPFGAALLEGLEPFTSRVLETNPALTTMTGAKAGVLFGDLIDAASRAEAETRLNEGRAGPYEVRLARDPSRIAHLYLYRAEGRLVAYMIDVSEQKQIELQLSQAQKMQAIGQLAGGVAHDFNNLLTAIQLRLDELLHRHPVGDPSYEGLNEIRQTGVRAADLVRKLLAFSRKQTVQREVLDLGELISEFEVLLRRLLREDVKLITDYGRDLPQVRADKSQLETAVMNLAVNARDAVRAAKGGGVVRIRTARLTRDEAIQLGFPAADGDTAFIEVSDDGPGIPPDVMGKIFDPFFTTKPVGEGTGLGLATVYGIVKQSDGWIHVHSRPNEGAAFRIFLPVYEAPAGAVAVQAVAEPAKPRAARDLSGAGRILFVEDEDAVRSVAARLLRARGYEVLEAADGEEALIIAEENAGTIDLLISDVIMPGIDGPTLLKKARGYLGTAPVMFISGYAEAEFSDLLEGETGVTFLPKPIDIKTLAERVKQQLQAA", "test": "Binding affinity to recombinant Caulobacter vibrioides cell cycle histidine kinase CckA delta 3 mutant DHp domain (190 to 562 residues) expressed in Escherichia coli assessed as change in metlting temperature at 30 uM after 2 mins by SYPRO orange dye based DSF assay"}, "[8]": {"test_system": "Histidine protein kinase DivJ (Caulobacter vibrioides)", "test": "Inhibition of recombinant Caulobacter vibrioides N-terminal His6-tagged catalytic domain DivJ (188 to 585 residues) expressed in Escherichia coli BL21 (DE3) assessed as enzyme aggregation at 400 uM after 30 mins by native-PAGE analysis"}, "[9]": {"molecular_target": "T4, Virulence sensor histidine kinase PhoQ (Salmonella typhimurium (strain LT2 / SGSC1412 / ATCC 700720)) (UniProt P0DM80)", "T4 sequence (whole entry)": "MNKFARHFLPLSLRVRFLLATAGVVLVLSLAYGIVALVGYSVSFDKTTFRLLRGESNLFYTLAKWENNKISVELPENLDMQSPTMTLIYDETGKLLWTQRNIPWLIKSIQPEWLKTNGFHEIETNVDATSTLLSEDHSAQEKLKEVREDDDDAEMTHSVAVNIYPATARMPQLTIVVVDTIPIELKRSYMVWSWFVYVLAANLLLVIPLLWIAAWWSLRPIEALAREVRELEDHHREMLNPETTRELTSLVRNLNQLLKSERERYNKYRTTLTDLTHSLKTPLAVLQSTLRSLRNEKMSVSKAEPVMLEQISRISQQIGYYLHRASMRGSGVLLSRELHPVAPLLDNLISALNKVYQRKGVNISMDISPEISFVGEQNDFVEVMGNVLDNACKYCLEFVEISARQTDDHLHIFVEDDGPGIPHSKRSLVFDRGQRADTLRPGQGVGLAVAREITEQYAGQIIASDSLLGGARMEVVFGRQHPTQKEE", "test": "Inhibition of recombinant Salmonella typhimurium N-terminal His6-SUMO-tagged PhoQ (257 to 487 residues) expressed in Escherichia coli BL21 (DE3) assessed as enzyme aggregation at 400 uM after 30 mins by native-PAGE analysis", "details": "Salmonella enterica subsp. enterica serovar Typhimurium"}, "[10]": {"test_system": "Escherichia coli", "test": "Antibacterial activity against Escherichia coli DC2 after 24 hrs by broth dilution method", "format": "functional", "details": "DC2, 24 h"}, "[11]": {"molecular_target": "T5, Histidine protein kinase DivJ (Caulobacter vibrioides (strain ATCC 19089 / CB15) (Caulobactercrescentus)) (UniProt Q03228)", "T5 sequence (whole entry)": "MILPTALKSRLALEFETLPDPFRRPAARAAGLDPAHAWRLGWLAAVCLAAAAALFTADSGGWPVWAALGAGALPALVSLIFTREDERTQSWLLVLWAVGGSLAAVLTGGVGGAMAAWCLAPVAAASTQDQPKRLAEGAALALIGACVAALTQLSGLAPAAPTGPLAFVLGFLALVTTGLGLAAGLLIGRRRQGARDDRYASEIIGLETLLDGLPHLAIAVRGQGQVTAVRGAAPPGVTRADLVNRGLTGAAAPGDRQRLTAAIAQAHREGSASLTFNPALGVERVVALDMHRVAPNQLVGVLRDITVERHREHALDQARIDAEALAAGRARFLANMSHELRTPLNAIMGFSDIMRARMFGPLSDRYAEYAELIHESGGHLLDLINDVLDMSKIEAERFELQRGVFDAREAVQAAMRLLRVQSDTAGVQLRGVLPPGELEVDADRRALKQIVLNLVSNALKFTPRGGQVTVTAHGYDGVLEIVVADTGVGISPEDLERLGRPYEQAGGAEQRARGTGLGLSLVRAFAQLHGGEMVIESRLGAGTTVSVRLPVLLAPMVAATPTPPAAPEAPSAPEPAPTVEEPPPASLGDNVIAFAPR", "test": "Inhibition of recombinant Caulobacter vibrioides N-terminal His6-tagged DHp-catalytic domain DivJ (188 to 585 residues) autophosphorylation expressed in Escherichia coli BL21(DE3) at 500 uM preincubated for 10 mins followed by [gamma-32P]-ATP addition after 15 mins by phosphotransferase dot blot assay relative to control", "set-up": "scale not given: the % may be the effect or the level left"}, "[12]": {"test_system": "Bacillus subtilis", "test": "Antibacterial activity against Bacillus subtilis YB886 after 24 hrs by broth dilution method", "format": "functional", "details": "YB886, 24 h"}, "[13]": {"molecular_target": "T4, Virulence sensor histidine kinase PhoQ (Salmonella typhimurium (strain LT2 / SGSC1412 / ATCC 700720))", "test": "as §1, with “BL21(DE3) at 500 uM” for “BL21 (DE3)”, “assay relative to control” for “assay”", "set-up": "scale not given: the % may be the effect or the level left", "details": "Salmonella enterica subsp. enterica serovar Typhimurium"}}, "note": "The source made the active and inactive calls. The rule behind the calls is not given here.", "data": [{"smiles": "CC(C)=CCc1c(O)cc2occ(Cl)c(=O)c2c1O", "values": [{"measurement": "Kd", "setting": "[1]", "result": 391, "unit": "µM"}]}, {"smiles": "COc1ccc(-c2c(-c3cc(Cl)c(O)cc3O)n[nH]c2C)cc1", "values": [{"measurement": "IC50", "setting": "[2]", "result": "12.3 to 14", "unit": "µM"}, {"measurement": "Ki", "setting": "[3]", "result": 3.8, "unit": "µM"}, {"measurement": "IC50", "setting": "[4]", "result": 238, "unit": "µM"}, {"measurement": "hemolysis at 0.5 h, 500 µM", "setting": "[5]", "result": 3, "unit": "%"}]}, {"smiles": "COc1ccc(-c2c(C)n[nH]c2-c2cc(Cl)c(O)cc2O)cc1", "values": [{"measurement": "MIC", "setting": "[6]", "result": 225, "unit": "µM"}, {"measurement": "ΔTm", "setting": "[7]", "result": 5, "unit": "°C"}, {"measurement": "inhibition", "setting": "[8]", "result": "inactive"}, {"measurement": "inhibition", "setting": "[9]", "result": "inactive"}, {"measurement": "MIC", "setting": "[10]", "result": "37.5 to 75", "unit": "µM"}, {"measurement": "Activity", "setting": "[11]", "result": 118, "unit": "%"}, {"measurement": "MIC", "setting": "[12]", "result": "150 to 225", "unit": "µM"}, {"measurement": "Activity", "setting": "[13]", "result": 66, "unit": "%"}]}]}
